From US20260007613A1, “LONG-ACTING LOW-TOXICITY NOVEL CATIONIC LIPID COMPOUNDS AND COMPOSITION THEREOF” (BEIJING YOUCAREKECHUANG PHARMACEUTICAL TECHNOLOGY CO., LTD., priority 2023, published 2026)
Several values for one entry are separate records, joined by “and”; a condition that tells them apart may be missing. Equal values may be shown once.

Key:
[1] = Particle size and polydispersity index (PDI) of lipid nanoparticles by dynamic light scattering; format: physicochemical; details: LNP formulation prepared from the cationic lipid, 25° C.
Protocol: The particle size and polydispersity index (PDI) were determined by dynamic light scattering using Malvern laser particle size analyzer.
10 μL of the liposome solution was weighed, diluted to 1 mL with RNase-free deionized water, and added to the sample pool. Each sample was measured in triplicate. The measurement conditions were: […] scattering angle, and 25° C.

[2] = test system: 293T cells; experiment: Cell survival rate determination (CCK-8); format: cell-based
In short: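 293T cells plated at 10,000/well (96-well), adhered overnight, then exposed 24 h to Fluc-mRNA LNP (cationic:neutral:structured:PEG-lipid 49:10:39.5:1.5) or Lipofectamine 3000. Viability by CCK-8, 1 h incubation, absorbance at 450 nm.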

[3] = test system: female BALB/C mice; experiment: Live imaging in mice: protein expression of Fluc-mRNA delivered by LNP formulations; format: in vivo; details: for average radiation intensity, times that of ALC-0315: comparator ALC-0315; for average radiation intensity, times that of HHMA: comparator HHMA; for average radiation intensity, times that of SM-102: comparator SM-102; for expression of mRNA in mice, times that of YK-302: comparator YK-302; for expression amount, times that of YK-309: comparator YK-309; for expression amount, times that of YK-313: comparator YK-313; for expression amount, times that of YK-321: comparator YK-321; for average radiation intensity, times that of compound 21: comparator compound 21; for average radiation intensity, times that of compound 23: comparator compound 23
In short: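 Female BALB/C mice (4-6 weeks, 17-19 g) received LNP-formulated Fluc-mRNA […] intramuscularly. At 6 h, 24 h, 48 h and 7 d, luciferase substrate given intraperitoneally, and after 5 min average radiance measured by IVIS whole-body imaging.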

[4] = test system: 293T cells; experiment: Fluorescent detection of Fluc-mRNA (cell transfection efficiency of LNP formulations); format: cell-based
In short: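 293T cells were seeded at 10,000/well and cultured overnight, then given LNP carrying […] Fluc-mRNA (cationic:neutral:structured:polymer-conjugated lipid 49:10:39.5:1.5 molar) for 24 h. Luminescence was developed with […] and imaged on IVIS.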

CCCCCCCCC(CCCCCCCC)COC(=O)CCCCCN(CCCCCC(=O)OCC(CCCCCCCC)CCCCCCCC)C[C@H](O)CN(CC)CCO [YK-312, (S)-bis(2-octyldecyl)-6,6′-((2-hydroxy-3-((2-hydroxyethyl)(ethyl)amino)propyl)azanediyl)dihexanoate]
PDI (%) [1]: 33.4% | Particle size (nm) [1]: 184 nm | Cell survival rate (%) ([2]; LNP formulation of Fluc-mRNA, 24 hours, CCK-8): 76.96% | cell survival rate higher than ALC-0315 ([2]; difference of survival rates, comparator ALC-0315): 25.93% | cell survival rate higher than HHMA ([2]; difference of survival rates, comparator HHMA): 10.49% | cell survival rate higher than Lipofectamine 3000 ([2]; difference of survival rates, comparator Lipofectamine 3000): 51.95% | cell survival rate higher than SM-102 ([2]; difference of survival rates, comparator SM-102): 7.51% | cell survival rate higher than YK-301 ([2]; difference of survival rates, comparator YK-301): 24.00% | cell survival rate higher than YK-302 ([2]; difference of survival rates, comparator YK-302): 60.53% | cell survival rate higher than YK-303 ([2]; difference of survival rates, comparator YK-303): 13.64% | cell survival rate higher than YK-304 ([2]; difference of survival rates, comparator YK-304): 42.80% | cell survival rate higher than YK-306 ([2]; difference of survival rates, comparator YK-306): 34.77% | cell survival rate higher than YK-307 ([2]; difference of survival rates, comparator YK-307): 15.82% | cell survival rate higher than YK-308 ([2]; difference of survival rates, comparator YK-308): 5.97% | cell survival rate higher than YK-309 ([2]; difference of survival rates, comparator YK-309): 45.35% | cell survival rate higher than YK-311 ([2]; difference of survival rates, comparator YK-311): 6.90% | cell survival rate higher than YK-313 ([2]; difference of survival rates, comparator YK-313): 8.03% | cell survival rate higher than YK-314 ([2]; difference of survival rates, comparator YK-314): 9.08% | cell survival rate higher than YK-315 ([2]; difference of survival rates, comparator YK-315): 5.68% | cell survival rate higher than YK-316 ([2]; difference of survival rates, comparator YK-316): 6.43% | cell survival rate higher than YK-317 ([2]; difference of survival rates, comparator YK-317): 17.78% | cell survival rate higher than YK-320 ([2]; difference of survival rates, comparator YK-320): 5.89% | cell survival rate higher than YK-321 ([2]; difference of survival rates, comparator YK-321): 4.62% | cell survival rate higher than compound 21 ([2]; difference of survival rates, comparator compound 21): 6.75% | cell survival rate higher than compound 23 ([2]; difference of survival rates, comparator compound 23): 5.46% | average radiation intensity, times that of ALC-0315 ([3]; 6 h): 9.27 times | average radiation intensity, times that of HHMA ([3]; 6 h): 12.30 times | average radiation intensity, times that of SM-102 ([3]; 6 h): 11.42 times | expression of mRNA in mice, times that of YK-302 ([3]; 6 h): 549.37 times | expression amount, times that of YK-309 ([3]; 6 h): 121.95 times | expression amount, times that of YK-313 ([3]; 6 h): 18.11 times | expression amount, times that of YK-321 ([3]; 6 h): 15.54 times | average radiation intensity, times that of compound 21 ([3]; 6 h): 13.12 times | average radiation intensity, times that of compound 23 ([3]; 6 h): 13.59 times | average radiation intensity ([3]; 6 h after intramuscular injection): 8009850 | average radiation intensity, times that of ALC-0315 ([3]; 24 h): 11.96 times | average radiation intensity, times that of HHMA ([3]; 24 h): 19.00 times | average radiation intensity, times that of SM-102 ([3]; 24 h): 18.91 times | expression of mRNA in mice, times that of YK-302 ([3]; 24 h): 575.97 times | expression amount, times that of YK-309 ([3]; 24 h): 135.46 times | expression amount, times that of YK-313 ([3]; 24 h): 21.82 times | expression amount, times that of YK-321 ([3]; 24 h): 22.51 times | average radiation intensity, times that of compound 21 ([3]; 24 h): 20.74 times | average radiation intensity, times that of compound 23 ([3]; 24 h): 21.80 times | average radiation intensity ([3]; 24 h after intramuscular injection): 2278520 | average radiation intensity, times that of ALC-0315 ([3]; 48 h): 20.43 times | average radiation intensity, times that of HHMA ([3]; 48 h): 24.98 times | average radiation intensity, times that of SM-102 ([3]; 48 h): 24.98 times | expression of mRNA in mice, times that of YK-302 ([3]; 48 h): 793.37 times | expression amount, times that of YK-309 ([3]; 48 h): 124.13 times | expression amount, times that of YK-313 ([3]; 48 h): 31.82 times | expression amount, times that of YK-321 ([3]; 48 h): 22.24 times | average radiation intensity, times that of compound 21 ([3]; 48 h): 26.25 times | average radiation intensity, times that of compound 23 ([3]; 48 h): 24.55 times | average radiation intensity ([3]; 48 h after intramuscular injection): 813200 | average radiation intensity, times that of ALC-0315 ([3]; 7 d): 14.97 times | average radiation intensity, times that of HHMA ([3]; 7 d): 17.97 times | average radiation intensity, times that of SM-102 ([3]; 7 d): 15.93 times | expression of mRNA in mice, times that of YK-302 ([3]; 7 d): 274.74 times | expression amount, times that of YK-309 ([3]; 7 d): 84.00 times | expression amount, times that of YK-313 ([3]; 7 d): 32.61 times | expression amount, times that of YK-321 ([3]; 7 d): 16.02 times | average radiation intensity, times that of compound 21 ([3]; 7 d): 16.37 times | average radiation intensity, times that of compound 23 ([3]; 7 d): 16.91 times | average radiation intensity ([3]; 7 d after intramuscular injection): 105500 | Relative light unit (RLU) ([4]; LNP formulation of Fluc-mRNA, 96-well plate, 24 hours): 20148450 RLU | Multiples (YK-305) ([4]; RLU of YK-305 / RLU of the lipid of the line): 1.36 | Multiples (YK-310) ([4]; RLU of YK-310 / RLU of the lipid of the line): 1.28 | Multiples (YK-312) ([4]; RLU of YK-312 / RLU of the lipid of the line): 1.00 | Multiples (YK-318) ([4]; RLU of YK-318 / RLU of the lipid of the line, Tables 5, 7, 11): 0.56 | Multiples (YK-319) ([4]; RLU of YK-319 / RLU of the lipid of the line, Tables 5, 7, 11): 1.21 | Ratio relative to SM-102 ([4]; RLU of the lipid / RLU of SM-102, times that of SM-102): 12.56 | cell transfection efficiency, times that of ALC-0315 ([4]; comparator ALC-0315): 9.91 times | cell transfection efficiency, times that of HHMA ([4]; comparator HHMA): 10.04 times | cell transfection efficiency, times that of Lipofectamine 3000 ([4]; comparator Lipofectamine 3000): 16.99 times | cell transfection efficiency, times that of YK-009 ([4]; comparator YK-009): 3.94 times | cell transfection efficiency, times that of YK-301 ([4]; comparator YK-301): 23.92 times | cell transfection efficiency, times that of YK-302 ([4]; comparator YK-302): 725.34 times | cell transfection efficiency, times that of YK-303 ([4]; comparator YK-303): 32.17 times | cell transfection efficiency, times that of YK-304 ([4]; comparator YK-304): ~900 times and 974.01 times | cell transfection efficiency, times that of YK-306 ([4]; comparator YK-306): 9.17 times | cell transfection efficiency, times that of YK-307 ([4]; comparator YK-307): 4.42 times | cell transfection efficiency, times that of YK-308 ([4]; comparator YK-308): 4.00 times | cell transfection efficiency, times that of YK-309 ([4]; comparator YK-309): ~160 times and 160.71 times | cell transfection efficiency, times that of YK-311 ([4]; comparator YK-311): 10.26 times | cell transfection efficiency, times that of YK-313 ([4]; comparator YK-313): 23.25 times | cell transfection efficiency, times that of YK-314 ([4]; comparator YK-314): 36.81 times | cell transfection efficiency, times that of YK-315 ([4]; comparator YK-315): 12.69 times | cell transfection efficiency, times that of YK-316 ([4]; comparator YK-316): 4.19 times | cell transfection efficiency, times that of YK-317 ([4]; comparator YK-317): 5.59 times | cell transfection efficiency, times that of YK-320 ([4]; comparator YK-320): 7.45 times | cell transfection efficiency, times that of YK-321 ([4]; comparator YK-321): 14.36 times | cell transfection efficiency, times that of compound 21 ([4]; comparator compound 21): 14.07 times | cell transfection efficiency, times that of compound 23 ([4]; comparator compound 23): 14.86 times
